Test results published in patent publication US20260224555A1, “NEW PHENYLQUINOLONE COMPOUND HAVING ANTIBACTERIAL AND ANTI-CANCER FUNCTIONS AND PREPARATION THEREOF” (AlphaMol Science Ltd (Shanghai), priority 2022, published 2026).
Converted amounts (≈) assume the structure as drawn. Where two headings read alike, the source gives them in different places. Values belong to the molecule of their own block, whether it stands above or below them.

Experiments:
Assay type in all cases: cell-based
A. baumannii ATCC 17978 = test: In vitro antibacterial activity assay (MIC, broth dilution); details: Acinetobacter baumannii, ATCC17978; Table 2; read-out: G- bacteria MIC A. baumannii ATCC 17978
Source text: (§1) The method used to indicate the activity of the compounds in this example is to record the minimum inhibitory concentration (MIC) of the compounds against bacteria. The specific experimental method is as follows:
(§2) 1. The bacterial liquid cultured from a single colony was taken, and diluted into autoclaved CAMHB broth in a ratio of 1:1000, and mixed well.
(§3) 2. The prepared drug solution was filtered through a sterile 0.22 µm syringe filter and placed in a sterile EP tube for later use.
(§4) 3. A 96-well plate was taken, and 20 µL of drug solution ([…]) was added to each well in the first column of the 96-well plate. Then, 180 µL of diluted bacterial liquid was added and mixed well (Perform 3 replicate rows for each drug).
(§5) The same process was performed for the hydrochloride drug.
(§6) 4. 100 μL of diluted bacterial liquid was added to each well in the remaining 11 columns of the 96-well plate. Drugs are the same as above.
(§7) 5. Serial dilution: 100 μL of liquid was taken from the first column to the second column, mixed well, then 100 μL of liquid was taken from the second column to the third column, mixed well, and so on, sequentially diluting down to the last column (column 12). After mixing column 12 well, 100 μL of liquid thereof was discarded. The drug concentration in each well was decreased by two-fold serially (the concentration in the first well is 40 μg/mL).
(§8) 6. Blank CAMHB broth without added bacteria liquid was added to 3 blank wells in the 96-well plate, as negative control.
(§9) 7. The diluted bacterial liquid was added to 3 blank wells in the 96-well plate, as positive control.
(§10) 8. Incubated at 37° C. for 16 hours.
(§11) 9. Results reading: the minimum inhibitory concentration is the minimum drug concentration at which no bacterial growth is visible to the naked eye and without turbidity.

E. coli ATCC 25922 = test: as above; details: Escherichia coli, ATCC25922; Table 2; read-out: G- bacteria MIC E. coli ATCC 25922
Source text: as §1, §2, §3, §4, §5, §6, §7, §8, §9, §10, §11

E. feacium ATCC 700221 = test: as above; details: read-out: G+ bacteria MIC E. feacium ATCC 700221
Source text: as §1, §2, §3, §4, §5, §6, §7, §8, §9, §10, §11

P. aeruginosa ATCC 27853 = test: as above; details: Pseudomonas aeruginosa, ATCC27853; Table 2; read-out: G- bacteria MIC P. aeruginosa ATCC 27853
Source text: as §1, §2, §3, §4, §5, §6, §7, §8, §9, §10, §11

S. aureus ATCC 43300 = test: as above; details: Staphylococcus aureus
Source text: as §1, §2, §3, §4, §5, §6, §7, §8, §9, §10, §11

[1] = system: human Burkitt's lymphoma cell Raji; test: In vitro anticancer activity test (MTT cell proliferation)
Method: (§12) The anticancer activity of the compounds was tested using an in vitro cancer cell tests. The specific test method is as follows:
(§13) 1. Cell recovery and culture method: the cryovial was taken out from the liquid nitrogen container firstly, soaked directly in 37° C. warm water, and shaked from time to time to let it thaw as soon as possible. Then, the cryovial was transferred to a clean bench, and the lid was open. The cell suspension was taken into a centrifuge tube using a rubber-tipped dropper and more than 10 times the culture medium was added, mixed well, and centrifuged at 50 g for 5 minutes. Then, the supernatant was discarded, complete culture medium containing 10% fetal bovine serum was added to resuspend the cells, the cells was counted, the cell density was adjusted, and then inoculated into a culture bottle. The culture bottle was placed in a cell culture incubator at 5% CO2 and 37° C. The complete culture medium was replaced once the next day and the culture was continued.
(§14) 2. Cell passaging method: adherent cells in the logarithmic growth phase were placed in a clean bench, the original culture medium was discarded, and washed three times with 1×PBS. An appropriate amount of 0.25% trypsin digestion solution was added to moisten the cells, and then the trypsin solution was aspirated. The cells were placed in a cell culture incubator at 5% CO2 and 37° C. for digestion for a suitable time, and observed under a microscope. When 90% of the cells become round, the cells were moved immediately to the clean bench and complete culture medium was added to terminate digestion. Then, the cells were dislodged by pipetting up and down with a rubber-tipped dropper to single cells. The cells were counted, and the cell density was adjusted. The cells were inoculated into a suitable culture bottle or dish, added enough complete culture medium, and placed in a cell culture incubator at 5% CO2 and 37° C. for static culture.
(§15) For suspension cells in the logarithmic phase, the original culture medium was directly centrifuged at 50 g for 5 minutes, the supernatant was discarded, and the cells were washed once with PBS and centrifuged. After discarding the supernatant, the complete culture medium was added and the cells were dispersed using a rubber-tipped dropper. The cells are counted, and the cell density was adjusted. The cells were inoculated into appropriate culture bottles or culture dishes, and sufficient complete culture medium was added, and the cells were cultured in a cell culture incubator at 5% CO2 and 37° C.
(§16) 3. Cell proliferation assay: cells in good state in logarithmic phase were taken and appropriate amount of the cells was inoculated into 96-well plates according to the cell passage treatment method, with each well containing 180 μL complete medium. After the cells growth was recovered and the number of cells in each well is 5000±500, a drug was added for treatment.
(§17) After drug treatment during the experimental time, MTT solution with a final concentration of 0.5 mg/mL was added to each well, and placed in a cell culture incubator at 5% CO2 and 37° C. to allow a fully reaction of MTT with cells. After 4 hours, the solution in the 96-well plate was discarded, 100 µL of DMSO was added, and shaked to dissolve the formazan precipitated at the bottom of the plate, and the absorbance value of samples was detected at a wavelength of 570 nm using a microplate reader. Calculation method of cell viability rate: […]

[2] = system: human acute monocytic leukemia cell THP-1; test: as above
Method: as §12, §13, §14, §15, §16, §17

[3] = system: human acute myeloid leukemia cell MOLM-13; test: as above
Method: as §12, §13, §14, §15, §16, §17

[4] = system: human liver cancer cell BLE-7402; test: as above
Method: as §12, §13, §14, §15, §16, §17

[5] = system: human renal cancer cell OS-RC-2; test: as above
Method: as §12, §13, §14, §15, §16, §17

MIC (A. baumannii ATCC 17978): 0.1 to 1 µg/mL (≈ 0.223 to 2.23 µM)
MIC (E. coli ATCC 25922): ≤ 0.1 µg/mL
MIC (E. feacium ATCC 700221; Table 1): 1 to 8 µg/mL (≈ 2.23 to 17.9 µM)
MIC (P. aeruginosa ATCC 27853): 0.1 to 1 µg/mL (≈ 0.223 to 2.23 µM)
MIC (S. aureus ATCC 43300; ATCC43300, Table 1, read-out: G+ bacteria MIC S. aureus ATCC 43300): ≤ 0.1 µg/mL
Structure (SMILES): O=C(O)c1cn(C2CC2)c2nc(-c3ccc(S(=O)(=O)NCCO)cc3)c(F)cc2c1=O [Example 18, 1-cyclopropyl-6-fluoro-7-(4-(N-(2-hydroxyethyl)aminosulfonyl)phenyl)-4-oxo-1,4-dihydro-1,8-naphthyridine-3-carboxylic acid]

IC50 [1]: ≥ 40 µM
Structure (SMILES): Cc1c(-c2cnc(N)nc2)c(F)cc2c(=O)c(C(=O)O)cn(C3CC3)c12 [compound 1, reference compound]

Structure (SMILES): O=C(O)c1cn(C2CC2)c2cc(N3CCNCC3)c(F)cc2c1=O [Reference compound 2 (Ciprofloxacin), reference compound]
IC50 [2]: > 100 µM
IC50 [3]: > 100 µM
IC50 [4]: > 100 µM
IC50 [5]: > 100 µM

Structure (SMILES): O=C(O)c1cn(C2CC2)c2cc(-c3ccc(S(=O)(=O)NCCCl)cc3)c(F)cc2c1=O [Example 15, 7-(4-(N-(2-chloroethyl)sulfamoyl)phenyl)-1-cyclopropyl-6-fluoro-4-oxo-1,4-dihydroquinolin-3-carboxylic acid]
MIC (E. feacium ATCC 700221): > 8 µg/mL
MIC (S. aureus ATCC 43300; ATCC43300, read-out: G+ bacteria MIC S. aureus ATCC 43300): ≤ 0.1 µg/mL
